Among the test systems are HCC-2998 colon; HL-60(TB) leukemia; IGROV1 ovarian; K-562 leukemia; LOX IMVI melanoma; MDA-MB-435; NCI-H226 lung; NCI-H522 lung; NCI/ADR-RES ovarian; RPMI-8226 leukemia; RXF 393 renal; SNB-19 CNS; SR leukemia.
What all share (experiment): DTP human tumour cell line panel, 48 h

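Values below derive from 48-hour exposures of cells grown in 96-well plates, with endpoints linearly interpolated between the two concentrations bracketing the appropriate inhibition level. The concentration for 50% growth inhibition is given as GI50. TGI: total growth inhibition.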

For `O=c1c2cc(I)ccc2nc(-c2cccs2)n1Nc1ccccc1`, the TGI was 50.8 µM in the assay on HCC-2998 colon; above 100 µM in the assay with HL-60(TB) leukemia; above 100 µM with IGROV1 ovarian; 22.9 µM with K-562 leukemia; above 100 µM with LOX IMVI melanoma; above 100 µM in the assay with MDA-MB-435. In addition, the TGI with NCI-H226 lung is above 100 µM; in the assay on NCI-H522 lung, above 100 µM; in the assay on NCI/ADR-RES ovarian, above 100 µM; with RPMI-8226 leukemia it was above 100 µM; in the assay with RXF 393 renal it was above 100 µM; in the assay on SNB-19 CNS, 76.6 µM. In addition, the TGI with SR leukemia is above 100 µM. The GI50 in the assay on K-562 leukemia is 0.301 µM.

On to `Nc1ccc(N=Nc2ccc(/C=C/c3ccc(N=Nc4ccc(N)c5ccc(S(=O)(=O)O)cc45)cc3S(=O)(=O)O)c(S(=O)(=O)O)c2)c2cc(S(=O)(=O)O)ccc12`, for which the TGI with HCC-2998 colon, with HL-60(TB) leukemia, in the assay on IGROV1 ovarian, with K-562 leukemia, in the assay with LOX IMVI melanoma and in the assay with NCI-H226 lung was above 100 µM in each case. For the same molecule, the TGI in the assay with NCI-H522 lung, with NCI/ADR-RES ovarian, in the assay on RPMI-8226 leukemia, in the assay on RXF 393 renal and in the assay on SNB-19 CNS was above 100 µM throughout.

`CC1CN=C(NCc2ccccc2)S1` (stereo not given): the total growth inhibition concentration (TGI) in the assay with HCC-2998 colon, with HL-60(TB) leukemia, in the assay on K-562 leukemia, in the assay on LOX IMVI melanoma, in the assay with MDA-MB-435 and in the assay with NCI-H226 lung was above 100 µM each time. The total growth inhibition concentration (TGI) with NCI-H522 lung, with RPMI-8226 leukemia, with RXF 393 renal, in the assay with SNB-19 CNS and in the assay with SR leukemia was above 100 µM in each case.

In the case of `COc1cc(/C=C2\CCCC3=C2NC(N)=NC3c2cc(OC)c(OC)c(OC)c2)cc(OC)c1OC` (stereo not given), the GI50 with HL-60(TB) leukemia is 2.6 µM; with IGROV1 ovarian it was 3.35 µM; in the assay on K-562 leukemia it was 2.15 µM; in the assay on MDA-MB-435, 0.422 µM; with NCI/ADR-RES ovarian, 0.29 µM; with RPMI-8226 leukemia, 0.291 µM. The GI50 in the assay with SR leukemia is 0.51 µM. The TGI in the assay with HL-60(TB) leukemia was above 100 µM; in the assay with IGROV1 ovarian, above 100 µM; in the assay with K-562 leukemia it was above 100 µM; in the assay with MDA-MB-435 it was above 100 µM; with NCI/ADR-RES ovarian it was above 100 µM; in the assay on RPMI-8226 leukemia, 1.79 µM. In addition, the TGI in the assay with SR leukemia came to 3.74 µM.

The record behind these values is PubChem BioAssay (NCI).
